Test results from patent publication US12503426B2, “Synthetic derivatives of oleoyl-lysophosphatidylinositol (oleoyl-LPI) and uses thereof” (LIPOVEXA SRL, priority 2017, dated 2025).

Assays:
Glutag cells = assay: GLP-1 secretion by Glutag cells; type: cell-based, murine; details: Glutag cells, inhibitor 1 hour before oleoyl-LPI (PD98059 50 μM; H89 10 μM)
Procedure: Glutag cells were maintained in low glucose DMEM (Sigma) (1 g/L) containing 2.0 mM L-glutamine, 1.0 mM sodium pyruvate and supplemented with 10% FBS, 100 IU/ml penicillin, 100 μg/ml streptomycin at a 37° C. and 5% CO2.
(§1) Approximately 80,000 Glutag cells were plated in poly-L-lysine-coated 24-well culture plates and grown to about 80% confluence. NCI-H716 cells were seeded on growth factor reduced Matrigel™ (Becton Dickinson, Bedford, MA) in DMEM medium, supplemented with 10% FBS the day before the experiment. For NCI-H716 cells, approximately 25,000 cells were needed for this secretion experiment in order to have good stimulation with lower basal GLP-1 secretion. In brief, Glutag and NCI-H716 cells were washed twice and then incubated for 2 h with FBS-free DMEM containing 1% (M:C) alone (negative control), 10 μM forskolin as positive control (Sigma-Aldrich), or with different concentrations of Oleoyl-LPI. M:C was used as a solvent to prepare stock solutions of fatty acid derivatives and inhibitors. For secretion experiments, medium and cells were collected separately.
(§2) In separate studies, GLUTag or NCI-H716 cells were pre-treated for 1 hour with medium alone (1% DMSO, negative control), PD98059 (50 μM; Sigma Chemical Co.), H89 (10 μM; Santa Cruz) followed by treatment with oleoyl-LPI (20 μM), OEA (10 μM), AR231453(1 μM), PMA (10 μM) or forskolin (10 μM, positive control) in the presence of inhibitors, as appropriate, for about 2 h. Medium GLP-1 secretion was calculated as total GLP-1 content of medium normalised for the basal secretion of the control.
(§3) In order to investigate the role of different LPI species in enteroendocrine cells, murine (Glutag) and human (NCI-H716) L-cells were stimulated with the following different species of LPI: Arachidonyl-LPI, Stearoyl-LPI, Heptadecenoyl-LPI and oleoyl-LPI, as well as with OEA and LPC. Experiments were performed in duplicate, n=4 and the level of total GLP-1 was measured by ELISA.

CREB = CREB phosphorylation by Western blot; type: cell-based; details: H89 10 μM pre-treatment or oleoyl-LPI in control cells
Procedure: When cell cultures reached 80-90%, media were removed and cells were washed twice with 1×PBS. The cells were lysed in 150 μl (for one well of a 6 well plate) of Triton X-100 lysis buffer, containing phosphatase inhibitor cocktail (1:1000) (Sigma Aldrich, UK) and protease inhibitor (1:1000, Sigma Aldrich, UK). Cells were detached with scrapers and lysate were collected and centrifuged at 10,000 rpm, 4° C. for 5 minutes. The supernatant was then transferred to a 1.5 ml microcentrifuge tube and used for protein quantification. Cell lysates were stored at −20° C. for longer storage. All lysates were prepared on ice.
Non-specific antibody binding was prevented by incubating the nitrocellulose membrane in 5% milk in PBS-0.05% Tween-20 (v/v) for 30 minutes on a rotating plate. The membrane was then washed in PBS-0.05% Tween-20 (v/v) and then incubated with the primary antibody diluted in PBS-0.05% Tween-20 (v/v) on a rotating plate overnight at 4° C. After 24 hours, the membrane was washed 5× for 5 minutes with PBS-0.05% Tween-20 (v/v), and then incubated on a rotating plate with the appropriate secondary antibody for 1 hour at room temperature. […]

NCI-H716 cells = assay: GLP-1 secretion by NCI-H716 cells (Examples 2-8); type: cell-based, human; details: NCI-H716 cells, inhibitor 1 hour before oleoyl-LPI (PD98059 50 μM; H89 10 μM)
Procedure: NCI-H716 cells were maintained in 75 cm^2 tissue culture flasks (Corning) in RPMI 1640 media containing 2.0 mM L-glutamine, 1.5 g/L sodium bicarbonate, 10 mM HEPES buffer, 1.0 mM sodium pyruvate, and 4.5 g/L glucose and supplemented with 10% FBS at a 37° C. and 5% CO2. When plating for experiment, cell adhesion and endocrine differentiation were initiated by growing cells in dishes coated with growth factor reduced Matrigel diluted at the ratio of 1:2 (Becton Dickinson, Bedford, MA) in high-glucose DMEM, 10% FBS, 2 mM glutamine, 100 IU/ml penicillin, and 100 μg/ml streptomycin as described previously by De Bruine, a P., Dinjens, W. N., van der Linden, E. P., Pijls, M. M., Moerkerk, P. T., & Bosman, F. T. (1993) The American Journal of Pathology, Vol 142(3), pp 773-782, the disclosure of which is incorporated herein in its entirety by reference.
as §1, §2, §3

[1] = tested on: Glutag and NCI-H761 cells; assay: Dose response of GLP-1 release at different glucose concentrations; type: cell-based
Procedure: Panels A and B show results of dose response of GLP-1 release in different glucose concentration of 5 mM (panel A) and 10 mM (panel B). The dose response of GLP-1 released was normalised of number of cells measured in parallel. Glutag and […] cells were incubated with vehicle alone, oleoyl-LPI, OEA, LPC forskolin (10 μM) and PMA (1 μM) as positive control for 2 hours. Results were normalised as percentage of cell treated with vehicle (control). For panels A and B data are shown as means±SEM of n=3 from independent experiments performed in duplicates. Student t-test: *p<0.05, **P<0.01. Panel C show results of dose response of GLP-1 release in a glucose concentration of 20 mM.
as §1
To determine the effect of glucose in oleoyl-LPI induced GLP-1 secretion, the inventors conducted dose-response experiment in the presence of 5 mM and 10 mM glucose in the secretion medium with the results outlined in FIG. 2A and FIG. 2B.

[2] = tested on: colonic cells of the GI tract obtained from guinea pig; assay: Ex vivo GLP-1 biosynthesis and secretion, guinea pig GI tract cells; type: cell-based; details: Cavia porcellus; ex vivo incubation 2 hours, quadruplicates
Procedure: To test for this, a pregnant guinea pig was anesthetized with isoflurane and sacrificed via intra-cardial injection of pentobarbital. Colon and rectum were quickly collected and intraluminal content washed out with ice-cold HBSS. After a thorough cleansing from the faecal material, and gentle scraping of the internal mucosa, the tissue was minced into 3 to 5-millimetre pieces and resuspended into 50 ml of ice cold HBSS. Pellet was spun down and washed again in 50 ml of ice-cold HBSS. Supernatant was carefully removed, and the epithelial fragments were then resuspended for 30 minutes at 37° C. into a 5 ml solution of HEPES 25 mM, collagenase-P 1 mg/ml in HBSS, pH 7.4 at 37° C.
The tissue was then pelleted and resuspended further for about 30 to 40 additional minutes at 37° C. within a 10 ml solution of 1 mg/ml collagenase-P as above.
After the digestion, about 40 ml of pre-warmed DMEM complete media was added (FBS 10%, glucose 4.5 g/L, glutamine 4 mM, sodium pyruvate 1 mM, HEPES 25 mM, sodium bicarbonate 3.7 g/L, Pen/Strep 1× and Ciprofloxacin 10 μg/ml pH 7.4 at 37° C.). Crypts and individual cells were isolated with a […] nylon strainer, spun down at 200 g for 5 minutes, resuspended into 10 ml of DMEM complete media and plated into 20 wells of a 24-well plate coated with a 3D gel of 3 mg/ml Matrigel (BD, Biosciences, Oxford, UK). After one day of incubation at 37° C. 5% CO2 in a humidified incubator, cells were washed with 500 μl of warm HBSS, and treated with 250 μl DMEM serum free (Complete medium without FBS) additioned with KR-62436 10 μg/ml and individually the following drugs or compounds: Forskolin and IBMX (20 μM each), oleoyl-LPI, and the two oleoyl-LPI analogs and/or derivatives ps297b (prepared as described in example 13) and ps316a (prepared as described in example 22) were all tested in quadruplicate at 20 μM.
After a 2-hour long incubation at 37 C 5% CO2, the supernatants were collected on ice, and quickly stored at […]. Active GLP-1 levels (7-37 amide and 7-36) were quantified on 50 μl of supernatant with an ELISA commercial kit (EMD Millipore). DMSO was used as a negative control, the combination of Forskolin and IBMX was included as positive control activators GLP-1. GLP-1 levels measured were standardized against the DMSO control.
The EC50 levels each one of oleoyl-LPI, compound ps297b and compound ps316a were also measured in quadruplicates at the conclusion of the 2 hour incubation. Guinea pig cells obtained as described above were also incubated with […] in quadruplicates and subjected to 2-hour long incubation at 37 C 5% CO2 as described above and EC50 levels measured.

human GPR119 = target: T1, human GPR119 (Homo sapiens, UniProt Q8TDV5); assay: cAMP assay in GPR119 transfected COS-7 cells; type: cell-based; details: COS-7 cells expressing human GPR119, agonists 30 min; read-out: EC50, production of cAMP
T1 construct: expressed in transfected cells; host or cells: COS-7 cells, calcium phosphate transfection
T1 sequence (Q8TDV5 1-335): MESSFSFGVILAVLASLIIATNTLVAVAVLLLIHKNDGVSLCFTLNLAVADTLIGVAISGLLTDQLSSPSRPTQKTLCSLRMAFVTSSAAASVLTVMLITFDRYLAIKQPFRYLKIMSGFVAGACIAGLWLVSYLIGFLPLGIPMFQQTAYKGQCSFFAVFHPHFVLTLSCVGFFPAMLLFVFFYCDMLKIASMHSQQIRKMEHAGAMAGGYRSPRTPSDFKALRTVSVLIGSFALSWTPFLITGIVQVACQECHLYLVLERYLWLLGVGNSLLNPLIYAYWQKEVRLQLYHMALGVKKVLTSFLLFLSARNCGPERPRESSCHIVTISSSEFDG
Procedure: COS-7 cells were cultured in Dulbecco's modified Eagle medium (DMEM) 1885 supplemented with 10% FBS, […] L-glutamine and 180 IU/ml penicillin+[…] streptomycin (Pen Strep) (Life Technologies, CA, USA) at 37° C. and 10% CO2. The COS-7 cells were transiently transfected with GPR119 or pcDNA by the calcium phosphate transfection method for 5 hours in 37° C., 10% CO2 as described by Kissow H, Hartmann B, Hoist J J, Viby N E, Hansen L S, Rosenkilde M M, Hare K J, Poulsen S S. Regul Pept. 2012. Vol: 179(1-3), pp 91-100; the disclosure of which is incorporated herein in its entirety by way of reference.
COS-7 cells were transfected with about 40 μg GPR119 DNA or pcDNA3 per […] flask. One day after transfection, the cells were seeded out (about 35,000 cell/well) in a 96 well white plate (Perkin Elmer, Massachusetts, USA). The cells were washed twice the following day and incubated for 30 min, at 37° C. with HBS and 1 mM IBMX (Sigma Aldrich, USA). Agonists were added for 30 min in the assay medium. The Hithunter® cAMP XS+ (DiscoveRx, Fremont, USA) was carried out by following the manufacturer's instructions.
Accordingly, the work outlined in this example evaluates whether activation of GPR119 by oleoyl-LPI in enteroendocrine L cell affect the proglucagon gene expression by monitoring the CREB activity. […]

| EC50 [2] [µM] | EC50 (human GPR119) [µM] | SMILES | oleoyl-LPI induced GLP-1 secretion with inhibitor pre-treatment (Glutag cells) | phosphorylation of CREB (CREB) | oleoyl-LPI induced GLP-1 secretion with inhibitor pre-treatment (NCI-H716 cells) | GLP-1 secretion ([1]; 5 mM glucose, 50 μM, 2 hours, percentage of vehicle control) [%] | GLP-1 secretion, dose response ([1]; 10 mM glucose) |
| --- | --- | --- | --- | --- | --- | --- | --- |
|  |  | O=S(=O)(NCCNC/C=C/c1ccc(Br)cc1)c1cccc2cnccc12 [H89] | observable reduction in GLP-1 secretion | inhibited | observable reduction in GLP-1 secretion |  |  |
| 30.7 | 0.422 | CCCCCCCC/C=C\CCCCCCCC(=O)NCCO [OEA, Oleoylethanolamide] |  |  |  | 178±15 | dose-dependently stimulate GLP-1 secretion in similar manner of oleoyl-LPI |
